Like-named read-outs stand apart in the source and are kept apart here.

Data on five molecules can be found in patent publication EP4745138A1, “THIO-GLUTARIMIDO ISOINDOLINONE DERIVATIVE, BIFUNCTIONAL PROTEIN DEGRADER CONTAINING SAME, AND USES THEREOF” (Gluetacs Therapeutics (Shanghai) Co., Ltd., priority 2023, dated 2025).

In assay [1] the test system is SR. The experiment in a line: Tumor cell proliferation inhibition (CellTiter-Meiluncell Luminescent Cell Viability Assay). As to conditions: Homo sapiens, 96 hours, Table I-1, designed based on the ALK inhibitors, read-out: Inhibitory activity (IC50, nM) SR. On the procedure:
(§1) The tumor cells used herein were cultured in a cell culture medium listed in table 3 at 37°C in an incubator with 5% CO2. Prior to experimentation, all cell lines used were correctly identified by STR profiling, and tested negative for mycoplasma contamination using a mycoplasma detection kit through routine screenings. Table 3. Tumor cells and cell culture medium used in the present disclosure
(§2) The IC50 values of the compounds of the present disclosure (including the compounds in Table 1, Table 2, and Examples) were determined using the CellTiter-Meiluncell Luminescent Cell Viability Assay Kit from Dalian Meilun Biotech Co., Ltd. The detailed procedure is as follows: Tumor cells were seeded in 96-well cell culture plates at the densities specified in Table 4. On the following day, the test compounds of the present disclosure were subjected to serial dilution. […] Subsequently, 0.5 µL of the test compound dilution was transferred into the 96-well plate containing the cells, with each well containing 100 µL of cell culture medium. […] Into the 96-well plate, the diluted test compounds and corresponding detection reagents were added, resulting in final test compound concentrations of 500 nM and 10 nM, respectively. The experimental procedure is described below using the diluted 2 µM test compound as an example.
(§3) 0.5 µL of the aforementioned diluted compound of the present disclosure (including the compounds in Table 1, Table 2, and Examples) was added to the seeded cells in 100 µL of medium, yielding a final test compound concentration of 10 nM. After the cells were treated with the compounds of the present disclosure for a specified period, the cell viability assay reagent was added to the culture medium according to the kit's instructions to determine cell viability. […] All controls were treated using the same procedure as the compounds of the present disclosure. […] Seeding protocol and treatment time for tumor cells

The subject of assay [2] is HCC827. Described as above. As to conditions: Homo sapiens, 96 hours, Table I-1, designed based on the ALK inhibitors, read-out: Inhibitory activity (IC50, nM) HCC827. The procedure: as §1, §2, §3
The subject of assay [3] is MV-4-11. Described as above. The class given is cell-based. The conditions noted are these: Homo sapiens, 96 hours; for inhibition at 0.01 µM: MV4-11, 10 nM, read-out: Inhibition Rate at 10 nM (%); for inhibition at 0.5 µM: MV4-11, 500 nM, read-out: Inhibition Rate at 500 nM (%). The procedure, abridged: (§4)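 Following overnight seeding, tumor cells received serial compound dilutions to final levels that included 10 nM and 500 nM. Viability was assessed by luminescence at the end of the specified exposure time. Cultures were kept at 37°C with 5% CO2.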

For assay [4], the system named is MCF-7. Described as above. In kind it is cell-based. As to conditions: Homo sapiens, 96 hours, Table I-2, ALK inhibitors. The method, boiled down: as §4
The subject of assay [5] is CFPAC-1. Described as above. The class given is cell-based. As to conditions: Homo sapiens, 96 hours, Table I-2, ALK inhibitors. The method, boiled down: (§5)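 Luminescent viability read-out (CellTiter-Meiluncell) after compound exposure for a specified time; IC50 determined. Seeding was done the day before dosing with serially diluted compound, final concentrations including 500 nM and 10 nM. Culture at 37°C, 5% CO2.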

In assay [6] the test system is MM.1S. Described as above. In kind it is cell-based. The conditions noted are these: Homo sapiens, MM1.S, MM.1S, 96 hours; for inhibition at 0.01 µM: 10 nM, read-out: Inhibition Rate at 10 nM (%); for inhibition at 0.5 µM: 500 nM, read-out: Inhibition Rate at 500 nM (%). The method, boiled down: as §4
In assay [7] the test system is A375. The description is as above. In kind it is cell-based. The conditions noted are these: Homo sapiens, 96 hours, Table I-2, ALK inhibitors. The procedure, abridged: as §5
Assay [8] has as its target T1, human Cereblon WT GST-tagged protein (Homo sapiens, UniProt Q96SW2).
T1 construct: purchased CISBIO 64BDCRBNPEH
Kind of assay: CRBN-binding affinity, HTRF (CEREBLON BINDING kit). As to conditions: for inhibition at 0.5 µM: read-out: Inhibition Rate at 0.5 µM (%); for inhibition at 2 µM: read-out: Inhibition Rate at 2 µM (%). The procedure, abridged: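 Competitive HTRF binding: compounds diluted in diluent #9 incubated with GST-tagged wild-type human Cereblon, thalidomide-Red tracer and anti-GST Eu antibody. Final compound concentrations 2 µM and 0.5 µM.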
(In TR-FRET formats the signal depends on donor and acceptor labels being close together.)

Assay [9] has as its target T2, IRAK4 (Homo sapiens, UniProt Q9NWZ3).
T2 construct: endogenous in cells; host or cells: hPBMC
The experiment in a line: Western blot, target protein degradation in hPBMC Cell. In kind it is cell-based. The conditions noted are these: substrate protein remaining %, treated at 50 nM and 500 nM, 24 hours. On the procedure: (§6) Conventional Western blot assay was performed to evaluate the effects of the compounds of the present disclosure on the expression of target proteins in cells.
(§7) (1) Cell Seeding and Protein Harvesting: The selected cells were processed according to the cell seeding procedure and protein harvesting procedure in Table II-2. Table II-2 Cell Seeding and Protein Harvesting Procedures
(§8) (2) To the collected supernatant, 5X SDS sample loading buffer was added, followed by denaturation at 95°C for 5 minutes. The denatured samples were then separated by SDS-PAGE electrophoresis on a polyacrylamide gel. Proteins were transferred to a nitrocellulose membrane (0.45 µm NC membrane), blocked with blocking buffer at room temperature for 1 hour, and subjected to antibody incubation and development procedures according to the antibody manufacturer's instructions (Cell Signaling Technology).
(§9) Half-Maximal Degradation Concentration value (the drug concentration required for degrading proteins by 50%, abbreviated as DC50) reads method: comparing the grayscale values of Western blot bands from drug-treated samples with those from blank DMSO-treated controls, and identifying the drug concentration range at which the grayscale value is half that of the DMSO-treated control bands.
(§10) DC50 values can be calculated using ImageJ software to measure grayscale values of Western blot bands from drug-treated samples. The concentration-response curve is fitted to estimate the drug concentration corresponding to half the grayscale value.
(§11) Target protein remaining (%) refers to the percentage of target protein remaining in cells after treatment with protein degrader compounds.
(§12) Calculation method for target protein remaining (%): Use ImageJ software to measure grayscale values of Western blot bands from drug (protein degrader)-treated samples. The grayscale value of drug-treated bands is divided by that of internal control protein bands, and the resulting quotient is normalized to obtain the relative percentage of remaining target protein after protein degrader treatment. Target protein degradation rate(%) = 1−target protein remaining(%). [formula]

For assay [10], the system named is SW620. Kind of assay: Tumor cell proliferation inhibition (CellTiter-Meiluncell Luminescent Cell Viability Assay). The conditions noted are these: Homo sapiens, 96 hours, Table I-6, IRAK4 inhibitors. In kind it is cell-based. The procedure, abridged:
as §4

In assay [11] the test system is JEKO-1. The description is as above. As to conditions: Homo sapiens, 96 hours; for inhibition at 0.01 µM: 10 nM, read-out: Inhibition Rate at 10 nM (%); for inhibition at 0.5 µM: 500 nM, read-out: Inhibition Rate at 500 nM (%). The class given is cell-based. The procedure, abridged:
as §4

Assay [12] deals with T3, CDK2 (Homo sapiens, UniProt P24941).
T3 construct: the expression of target proteins in cells; endogenous in cells; host or cells: hPBMC
The experiment in a line: Western blot, target protein degradation in hPBMC Cell. In kind it is cell-based. As to conditions: treated at 50 nM and 500 nM, 24 hours. The procedure:
as §6, §7, §8, §9, §10, §11, §12

T1 sequence (Q96SW2 whole entry): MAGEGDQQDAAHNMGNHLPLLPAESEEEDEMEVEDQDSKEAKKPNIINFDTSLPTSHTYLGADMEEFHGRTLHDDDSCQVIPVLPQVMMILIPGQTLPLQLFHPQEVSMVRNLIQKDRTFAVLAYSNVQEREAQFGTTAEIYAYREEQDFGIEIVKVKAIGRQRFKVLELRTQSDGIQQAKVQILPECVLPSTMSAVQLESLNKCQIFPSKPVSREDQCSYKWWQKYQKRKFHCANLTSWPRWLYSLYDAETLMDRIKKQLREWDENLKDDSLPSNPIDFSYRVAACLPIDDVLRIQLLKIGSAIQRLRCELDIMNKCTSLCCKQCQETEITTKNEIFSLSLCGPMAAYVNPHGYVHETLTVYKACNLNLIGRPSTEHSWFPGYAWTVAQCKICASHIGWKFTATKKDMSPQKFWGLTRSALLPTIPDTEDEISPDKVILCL
T2 sequence (Q9NWZ3 whole entry): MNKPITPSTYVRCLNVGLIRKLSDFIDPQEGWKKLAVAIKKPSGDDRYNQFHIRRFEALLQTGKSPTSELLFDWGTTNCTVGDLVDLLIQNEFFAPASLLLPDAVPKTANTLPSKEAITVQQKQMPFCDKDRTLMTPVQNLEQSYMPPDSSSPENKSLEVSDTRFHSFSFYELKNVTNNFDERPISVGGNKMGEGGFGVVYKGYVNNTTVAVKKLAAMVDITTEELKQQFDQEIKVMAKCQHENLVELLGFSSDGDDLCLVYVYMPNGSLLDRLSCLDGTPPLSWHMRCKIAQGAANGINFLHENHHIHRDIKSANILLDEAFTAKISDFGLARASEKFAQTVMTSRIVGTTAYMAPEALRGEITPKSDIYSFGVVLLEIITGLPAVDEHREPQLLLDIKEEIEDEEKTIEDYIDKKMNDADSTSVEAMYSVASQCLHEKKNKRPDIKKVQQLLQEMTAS

On to `C[C@H]1Oc2cc(cnc2N)-c2c(nn(C)c2C#N)CN(C)C(=O)c2ccc(F)cc21` [lorlatinib, reference compound], for which the IC50 in [1] and in [2] was greater than 10000 nM each time. For the same molecule, the inhibition (usually the change of the read-out against control, counted positive when it falls) at 0.01 µM in [3] (Table I-2, ALK inhibitors) was -20 to -10%; in [4] (MCF7, 10 nM, read-out: Inhibition Rate at 10 nM (%)) it was 10 to 20%; in assay [5] (10 nM, read-out: Inhibition Rate at 10 nM (%)), 10 to 20%; in assay [6] (Table I-2, ALK inhibitors) it was -5 to 0%; in [7] (A-375, 10 nM, read-out: Inhibition Rate at 10 nM (%)) it was 10 to 20%. Further, the inhibition at 0.5 µM in [3] (Table I-2, ALK inhibitors) is -5 to 0%; in assay [4] (MCF7, 500 nM, read-out: Inhibition Rate at 500 nM (%)), 20 to 30%; in [5] (500 nM, read-out: Inhibition Rate at 500 nM (%)), 20 to 30%; in assay [6] (Table I-2, ALK inhibitors), -20 to -10%; in assay [7] (A-375, 500 nM, read-out: Inhibition Rate at 500 nM (%)), 10 to 20%.
For `CC(C)(O)c1cc2nn(C3CCN(Cc4ccc5c(c4)CN(C4CCC(=O)NC4=O)C5=S)CC3)cc2cc1NC(=O)c1cccc(C(F)(F)F)n1` (stereo not drawn) [GT-05297, N-(2-(1-((2-(2,6-dioxopiperidin-3-yl)-1-thioxoisoindolin-5-yl)methyl)piperidin-4-yl)-6-(2-hydroxypropan-2-yl)-2H-indazol-5-yl)-6-(trifluoromethyl)picolinamide], in [8], the inhibition at 0.5 µM was 60 to 80% and the inhibition at 2 µM is 80 to 100%. Besides, in assay [9], the “Degradation of substrate protein IRAK4” value was “A (0% ≤ substrate protein remaining % ≤ 80%)”.
Take `O=C1CCC(N2Cc3cc(CN4CCC(n5cc(NC(=O)c6coc(-c7ccnc(NCC(F)(F)F)c7)n6)c(C(F)F)n5)CC4)ccc3C2=S)C(=O)N1` (stereo not drawn) [GT-05292, N-(3-(difluoromethyl)-1-(1-((2-(2,6-dioxopiperidin-3-yl)-1-thioxoisoindolin-5-yl)methyl)piperidin-4-yl)-1H-pyrazol-4-yl)-2-(2-((2,2,2-trifluoroethyl)amino)pyridin-4-yl)oxazole-4-carboxamide]: the inhibition at 0.01 µM in [3] (Table I-6, IRAK4 inhibitors) is 80 to 100%; in assay [10] (SW-620, 10 nM, read-out: Inhibition Rate at 10 nM (%)), 70 to 80%; in assay [6] (Table I-6, IRAK4 inhibitors), 50 to 60%; in assay [11] (Table I-6, IRAK4 inhibitors) it was 30 to 40%. Further, the inhibition at 0.5 µM in assay [3] (Table I-6, IRAK4 inhibitors) lay within 80 to 100%; in [10] (SW-620, 500 nM, read-out: Inhibition Rate at 500 nM (%)), 80 to 100%; in [6] (Table I-6, IRAK4 inhibitors), 80 to 100%; in assay [11] (Table I-6, IRAK4 inhibitors) it was 80 to 100%; in [8] it was 20 to 30%. Further, the inhibition at 2 µM in [8] fell in the range of 60 to 80%. Moreover, the “Degradation of substrate protein IRAK4” value in assay [9] is given as “A (0% ≤ substrate protein remaining % ≤ 80%)”.
As for `Cc1ccsc1C(=O)n1nc(Nc2ccc(S(=O)(=O)N3CCN(Cc4ccc5c(c4)C(=S)N(C4CCC(=O)NC4=O)C5)CC3)cc2)nc1N` (stereo not drawn) [GT-08798, 3-(6-((4-((4-((5-amino-1-(3-methylthiophene-2-carbonyl)-1H-1,2,4-triazol-3-yl)amino)phenyl)sulfony 1)piperazin-1-yl)methyl)-1-thioxoisoindolin-2-yl)piperidine-2,6-dione], the inhibition at 0.01 µM in assay [3] (Table I-13, CDK2 inhibitors) is 20 to 30%; in assay [6] (Table I-13, CDK2 inhibitors), 10 to 20%; in assay [11] (Table I-13, CDK2 inhibitors) it was 10 to 20%. The inhibition at 0.5 µM in assay [3] (Table I-13, CDK2 inhibitors) was 60 to 70%; in [6] (Table I-13, CDK2 inhibitors) it was 50 to 60%; in assay [11] (Table I-13, CDK2 inhibitors), 60 to 70%; in [8], 53 to 60%. Moreover, the inhibition at 2 µM in assay [8] lay within 60 to 80%. Moreover, in assay [12], the “Degradation of substrate protein CDK2” value is on record as “Yes”.
For the molecule `Cc1ccsc1C(=O)n1nc(Nc2ccc(S(=O)(=O)N3CCN(Cc4ccc5c(c4)CN(C4CCC(=O)NC4=O)C5=S)CC3)cc2)nc1N` (stereo not drawn) [GT-08792, 3-(5-((4-((4-((5-amino-1-(3-methylthiophene-2-carbonyl)-1H-1,2,4-triazol-3-yl)amino)phenyl)sulfony 1)piperazin-1-yl)methyl)-1-thioxoisoindolin-2-yl)piperidine-2,6-dione], in assay [3] (Table I-13, CDK2 inhibitors), the inhibition at 0.01 µM was 0 to 5% and the inhibition at 0.5 µM fell in the range of 50 to 60%. Besides, in assay [6] (Table I-13, CDK2 inhibitors), the inhibition at 0.01 µM was in the range of 10 to 20% and the inhibition at 0.5 µM lay in the range of 60 to 70%. In addition, in assay [8], the inhibition at 0.5 µM lay in the range of 60 to 80% and the inhibition at 2 µM was 60 to 80%. Moreover, the “Degradation of substrate protein CDK2” value in [12] is reported as “Yes”.
